Reference: patent EP0036652A2, “Cephalosporin derivatives, process for their preparation, corresponding compositions, their use in the treatment of diseases and intermediates” (F. HOFFMANN-LA ROCHE & CO. Aktiengesellschaft, priority 1980, dated 1981)
≈ marks a conversion by molar mass, not a printed value.

Assays:
Enterobacter cloacae = experiment: In vitro activity: minimum inhibitory concentration; assay type: cell-based; settings: β-lactamase-producing strain, read-out: Mindesthemmkonzentration
Source text: (§1) Zum Nachweis der antimikrobiellen Wirksamkeit der erwähnten Produkte wurden folgende repräsentative Vertreter getestet: • Produkt A: (6R,7R)-7-/2-(2-Amino-4-thiazolyl)-2-[(Z)-methoxyimino]acetamido/-3-/[(2,5-dihydro-6- methoxy-2-methyl-5-oxo-as-triazin-3-yl)-; thio]methyl/-8-oxo-5-thia-1-azabicyclo-[4.2.0]oct-2-en-2-carbonsäure-Natriumsalz • Produkt B: (6R,7R)-7-/2-(2-Amino-4-thiazolyl)-2-[(Z)-methoxyimino]acetamido/-3-/[(3-carboxy-1-methyl-1H-1,2,4-triazol-5-yl)thio]methyl/-8-oxo-5-thia-1-azabicyclo[4.2.0]oct-2-en-2-carbonsäure-Dinatriumsalz • Produkt C: (6R,7R)-7-[2-(2-Amino-4-thiazolyl)-2-((Z)-methoxyimino)acetamido]-3-[[[2,5-dihydro-2-methyl-5-oxo-6-[(pivaloyloxy)methoxy]-as- triazin-3-yl]thio]methyl]-[…]-1-azabicyclo[4.2.0]oct-2-en-2-carbonsäure-Natrium-. salz.
(§2) Aktivität in vitro: Mindesthemmkonzentration (µg/ml)

Escherichia coli = experiment: as above; assay type: cell-based; settings: β-lactamase-producing strain, read-out: Mindesthemmkonzentration
Source text: as §1, §2

Haemophilus influenzae = experiment: as above; assay type: cell-based; settings: read-out: Mindesthemmkonzentration
Source text: as §1, §2

Neisseria gonorrhoeae = experiment: as above; assay type: cell-based; settings: read-out: Mindesthemmkonzentration
Source text: as §1, §2

Proteus mirabilis = experiment: as above; assay type: cell-based; settings: β-lactamase-producing strain, read-out: Mindesthemmkonzentration
Source text: as §1, §2

Proteus vulgaris = experiment: as above; assay type: cell-based; settings: β-lactamase-producing strain, read-out: Mindesthemmkonzentration
Source text: as §1, §2

[1] = test system: Pseudomonas aeruginosa Stamm 1; experiment: as above; assay type: cell-based; settings: STAMM1; Pseudomonas aeruginosa Stamm 1, β-lactamase-producing strain; read-out: Mindesthemmkonzentration
Source text: as §1, §2

[2] = test system: Pseudomonas aeruginosa Stamm 2; experiment: as above; assay type: cell-based; settings: STAMM2; Pseudomonas aeruginosa Stamm 2, β-lactamase-producing strain; read-out: Mindesthemmkonzentration
Source text: as §1, §2

Serratia marcescens = experiment: as above; assay type: cell-based; settings: β-lactamase-producing strain, read-out: Mindesthemmkonzentration
Source text: as §1, §2

Staphylococcus aureus = experiment: as above; assay type: cell-based; settings: read-out: Mindesthemmkonzentration
Source text: as §1, §2

Toxicity (LD100) = assay type: in vivo
Half-life in the rat = experiment: Half-life in the rat; parameters: species or system Ratte; settings: in vivo, 20 mg/kg, after administration of 20 mg substance per kg body weight, read-out: Halbwertzeit
Source text: Verbindungen der Formel I, worin X die Gruppe (b) darstellt, sowie die entsprechenden Ester, Salze und Hydrate zeichnen sich durch eine lange Halbwertzeit aus, d.h. sie bleiben lange im Organismus und können dementsprechend effektiver ihre keimtötende Funktion ausüben. So zeigt z.B. das Dinatriumsalz von (6R,7R)-7-/-2-(2-Amino-4-thiazolyl)-2-[(Z)-me- thoxyimino]acetamido/-3-/[(3-carboxy-1-methyl-1H-1,2,4-triazol-5-yl)thio]methyl/-8-oxo-5-thia-1-azabieyclo[4.2.0]-oct-2-en-2-carbonsäure eine Halbwertzeit an der Ratte von 22 Min. nach Verabreichung von 20 mg Substanz pro kg Körpergewicht.

Row | Structure (SMILES) | MIC (Enterobacter cloacae) | MIC (Escherichia coli) | MIC (Haemophilus influenzae) | MIC (Neisseria gonorrhoeae) | MIC (Proteus mirabilis) | MIC (Proteus vulgaris) | MIC [1] | MIC [2] | MIC (Serratia marcescens) | MIC (Staphylococcus aureus) | LD100 (Toxicity (LD100); i.v.) | LD100 (Toxicity (LD100); p.o.) | LD100 (Toxicity (LD100); s.c.) | half-life (Half-life in the rat)
1 | CO/N=C(\C(=O)N[C@@H]1C(=O)N2C(C(=O)O)=C(CSc3nc(=O)c(OC)nn3C)CS[C@H]12)c1csc(N)n1 [Produkt A, (6R,7R)-7-/2-(2-Amino-4-thiazolyl)-2-[(Z)-methoxyimino]acetamido/-3-/[(2,5-dihydro-6-methoxy-2-methyl-5-oxo-as-triazin-3-yl)- ; thio]methyl/-8-oxo-5-thia-1-azabicyclo-[4.2.0]oct-2-en-2-carbonsäure-Natriumsalz] | 1.2 µg/mL (≈ 2.11 µM) | 0.04 µg/mL (≈ 0.0703 µM) | 0.01 µg/mL (≈ 0.0176 µM) | 0.01 µg/mL (≈ 0.0176 µM) | 0.04 µg/mL (≈ 0.0703 µM) | 0.02 µg/mL (≈ 0.0352 µM) | 40 µg/mL (≈ 70.3 µM) | 80 µg/mL (≈ 141 µM) | 0.16 µg/mL (≈ 0.281 µM) | 2.5 µg/mL (≈ 4.4 µM) | > 500 mg/kg | >5000 mg/kg | >4000 mg/kg | 
2 | CO/N=C(\C(=O)N[C@@H]1C(=O)N2C(C(=O)O)=C(CSc3nc(C(=O)O)nn3C)CS[C@H]12)c1csc(N)n1 [Produkt B, (6R,7R)-7-/2-(2-Amino-4-thiazolyl)-2-[(Z)-methoxyimino]acetamido/-3-/[(3-carboxy-1-methyl-1H-1,2,4-triazol-5-yl)thio]methyl/-8-oxo-5-thia-1-azabicyclo[4.2.0]oct-2-en-2-carbonsäure-Dinatriumsalz] | 10 µg/mL (≈ 18 µM) | 0.08 µg/mL (≈ 0.144 µM) | 0.01 µg/mL (≈ 0.018 µM) | 0.0025 µg/mL (≈ 0.00451 µM) | 0.01 µg/mL (≈ 0.018 µM) | 0.01 µg/mL (≈ 0.018 µM) | 40 µg/mL (≈ 72.1 µM) | 40 µg/mL (≈ 72.1 µM) | 0.16 µg/mL (≈ 0.289 µM) | 10 µg/mL (≈ 18 µM) |  | >5000 mg/kg |  | 22 min
3 | CO/N=C(\C(=O)N[C@@H]1C(=O)N2C(C(=O)O)=C(CSc3nc(=O)c(OCOC(=O)C(C)(C)C)nn3C)CS[C@H]12)c1csc(N)n1 [Produkt C, (6R,7R)-7-[2-(2-Amino-4-thiazolyl)-2-((Z)-methoxyimino)acetamido]-3-[[[2,5-dihydro-2-methyl-5-oxo-6-[(pivaloyloxy)methoxy]-as-triazin-3-yl]thio]methyl]-[…]-1-azabicyclo[4.2.0]oct-2-en-2-carbonsäure-Natrium-. salz] | 25 µg/mL (≈ 37.4 µM) | 0.1 µg/mL (≈ 0.15 µM) | 0.04 µg/mL (≈ 0.0598 µM) |  | 0.4 µg/mL (≈ 0.598 µM) | 0.2 µg/mL (≈ 0.299 µM) | 50 µg/mL (≈ 74.8 µM) | 50 µg/mL (≈ 74.8 µM) | 3.1 µg/mL (≈ 4.64 µM) | 1.6 µg/mL (≈ 2.39 µM) | >500 mg/kg | >5000 mg/kg | >4000 mg/kg | 
